In data set [1] the test system is HaCaT keratinocyte cells. Nature of the data set: Keratinocyte differentiation (acridine orange staining). It is filed as cell-based. To be noted: 24 hrs, average of minimum three replicates. As for the experimental part:
Several dicarboxylic acids were tested in an in-vitro assay viz. keratinocyte differentiation which is a well known pathway leading to skin lightening. The assay protocol is given below: 5×10^4 HaCaT keratinocyte cells/well were grown in 24 well plates for 24 hours. Cells were cultured with actives for 24 hrs. Cells were then washed with Phosphated buffer solution (PBS) and stained with 5 μg/ml acridine orange. Cells were immediately viewed using an epi-fluorescent microscope (Olympus BX 50), at 20× magnification, using appropriate excitation and barrier filters, to simultaneously view red and green fluorescence (excitation: 460 nm and emission>515 nm). The entire plate was scanned and the percentage of differentiated keratinocytes (cells with red fluorescence evenly distributed within the cytoplasm) was estimated. Data is represented as % control.

In another data set the test system is B16 melanocytes. To be noted: 1 mM active, 24 hrs, average of minimum three replicates. As for the experimental part: B16 melanocytes were cultured in 60 mm^2 petriplates for 2-3 days or until they reached ˜70% confluency and then actives were added and incubated for 24 hrs. Cells were harvested and protein content was estimated using Bradford method. The cells were then solubilized in 0.1N NaOH and melanin was estimated. Data are then calculated as mg melanin/mg protein and represented as % control. Decreased numbers indicate inhibition of melanin synthesis by the actives.

Data set [2] relates to HaCaT keratinocyte cells. As to the kind of experiment: Highest concentration above which the active exhibited cytotoxicity. Format: cell-based. Conditions: keratinocyte differentiation experiment of table 2.

Where a name gives a salt, the structure may show the parent alone.

As for `CCCC(=O)[O-].[Na+]` [sodium butyrate], the “% Keratinocyte differentiation, average” value with HaCaT keratinocyte cells [1] (1 mM active) turned out to be 174 % control. In addition, the “Melanin (mg melanin/mg protein), average” value in the data set on B16 melanocytes stood at 92 % control. Besides, the “Conc. of active = highest possible concentration above which the active exhibited cytotoxicity” value with HaCaT keratinocyte cells [2] is 1000 µM.

With `O=C(O)/C=C/C(=O)O` [disodium fumarate], the “% Keratinocyte differentiation, average” value in the data set with HaCaT keratinocyte cells [1] (10 mM active) worked out at 183 % control. The “Conc. of active = highest possible concentration above which the active exhibited cytotoxicity” value in the data set with HaCaT keratinocyte cells [2] stood at 10000 µM.

Regarding `O=C(O)CCCCCCCC(=O)O` [azeleic acid], in the data set on HaCaT keratinocyte cells [1] (5.5 mM active), the “% Keratinocyte differentiation, average” value stood at 175 % control. In addition, the “Conc. of active = highest possible concentration above which the active exhibited cytotoxicity” value in the data set on HaCaT keratinocyte cells [2] is 5500 µM.

As to `O=C([O-])C(O)C(O)C(=O)[O-].[Na+].[Na+]` (stereo not shown) [sodium tartarate], the “% Keratinocyte differentiation, average” value with HaCaT keratinocyte cells [1] (10 mM active) is given as 165 % control. Also, the “Conc. of active = highest possible concentration above which the active exhibited cytotoxicity” value with HaCaT keratinocyte cells [2] came to 10000 µM.

As for `O=C([O-])CCC(=O)[O-].[Na+].[Na+]` [sodium succinate], in the data set on HaCaT keratinocyte cells [1] (6 mM active), the “% Keratinocyte differentiation, average” value is on record as 155 % control. In addition, the “Conc. of active = highest possible concentration above which the active exhibited cytotoxicity” value with HaCaT keratinocyte cells [2] is 6000 µM.

As for `O=C(O)CCCCCCCCC(=O)O` [sebacic acid], the “% Keratinocyte differentiation, average” value in the data set with HaCaT keratinocyte cells [1] (5 mM active) came out at 130 % control. In addition, in the data set on HaCaT keratinocyte cells [2], the “Conc. of active = highest possible concentration above which the active exhibited cytotoxicity” value was determined as 5000 µM.

These data come from patent US20130266528A1, “SKIN LIGHTENING COMPOSITION” (priority 2010, published 2013).
